These results are taken from PMC9154793, “Design, synthesis, and biological evaluation of triazole-pyrimidine-methylbenzonitrile derivatives as dual A2A/A2B adenosine receptor antagonists” (Journal of Enzyme Inhibition and Medicinal Chemistry, 2022).

Molecules are shown by their SMILES. Entries after “also recorded” stand apart in the source; their conditions may differ. Where two headings read alike, the source gives them in different places.

Data set [1] can be described thus: In vivo pharmacokinetics study in Balb/c mice. The conditions noted are these: for Cmax / Tmax / half-life / AUC(0-inf) / bioavailability / AUC(0-t): female, Balb/c, mouse, plasma; for bioavailability: oral 30 mg/kg vs i.v. 10 mg/kg, read-out: F (absolute bioavailability). On the procedure:
The in vivo pharmacokinetic (PK) profiles of compounds 7f and 7i were examined in […] Balb/c mice (Table 5 and Figure 5). […] After the intravenous (i.v.) administration of 10 mg/kg, the maximum plasma concentration of compounds 7f and 7i were 5010.30 µg/l at 0.25 h and 7266.60 µg/l at 0.25 h, respectively. […] These PK parameters can be used to evaluate the drug-like properties of compounds 7f and 7i, so as to clarify their effectiveness and obtain better clinical treatment effects.
The absolute bioavailabilities of synthetic compounds (7f, 7i) were studied in female Bal b/c mice (Jinan Pengyue Experimental Animal Breeding Co., Ltd.). The mice were divided into four groups each having six mice and were collected at crossover time points, with three mice at each point. Pharmacokinetics (PK) was evaluated after a single dose of 30 mg/kg oral gavage (Oral) or 10 mg/kg intravenous (i.v.) administration. After oral administration and i.v. injection, blood samples were obtained from the suborbital veniplex at pre, 15 min, 30 min, 1 h, 2 h, 4 h, 6 h, 8 h, 12 h, 24 h (Oral) and pre, 5 min, 15 min, 30 min, 1 h, 2 h, 4 h, 6 h, 8 h, 12 h, 24 h (i.v.). Approximately 200 μl of blood was collected at each time point. All blood samples were put into plastic microcentrifuge tubes containing Heparin-Na as an anticoagulant. Microcentrifuge tubes with blood samples and anticoagulant were inverted several times for proper mixing of the tube contents to centrifugation for plasma. Plasma samples will be centrifuged at 12,000 rpm for 8 min at 4 °C to obtain the supernatant. The serum sample (25 μl) was treated with acetonitrile (100 μl), after which the mixture was vortex-mixed for 8 min and centrifuged at 10,000 rpm for 10 min at 4 °C. The supernatant layer was collected and then 50 μl of supernatant was injected for the UPLC-MS/MS analysis (details of the analytical method see Supporting information). […]
9. Analytical method of pharmacokinetics assay
Animal experiments were performed according to the institutional ethical guidelines on animal care and approved by the Institute Animal Care and Use Committee at Binzhou […]
Female Bal b/c mice (sourced from Jinan Pengyue Experimental Animal Breeding Co., Ltd.) approximately 6-8 weeks of age, and a weight of approximately 20-30 g. All of the mice were permitted with free access to standard pelleted food and water ad libitum and were kept in clean cages under controlled conditions (light/ dark cycle of 12 h, 60 ± 2% humidity, and 25 ± 1 °C). Before the day of administration, […] were fasted for 12 h but allowed water ad libitum.
9.2 Design of bioavailability study
The mice were divided into 4 groups each having six mice and were collected at crossover time points, with three mice at each point. Pharmacokinetics (PK) was […]
evaluated after a single dose of 30 mg/kg oral gavage (Oral) and 10 mg/kg intravenous […]
(i.v.) administration. The blood samples were obtained from the suborbital veniplex.
Each cohort had three mice, and plasma was collected at pre, 5 min, 15 min, 30 min, 1 […]
h, 2 h, 4 h, 6 h, 8 h, 12 h, and 24 h post dose for intravenous administration. Plasma […]
was collected at pre, 15 min, 30 min, 1 h, 2 h, 4 h, 6 h, 8 h, 12 h, and 24 h post dose for […]
9.3 Samples collection and quantitative analysis
Approximately 200 μL of blood was collected at each time point. All blood samples […]
were put into plastic microcentrifuge tubes containing Heparin-Na as anticoagulant. […]
microcentrifuge tubes with blood samples and anticoagulant were inverted several […]
times for proper mixing of the tube contents to centrifugation for plasma. Plasma […]
samples will be centrifuged at 12000 rpm for 8 min at 4 ℃ to obtain the supernatant.
The serum sample (25 μL) was treated with acetonitrile (100 μL), after which the […]
mixture was vortex-mixed for 8 min and centrifuged at 10000 rpm for 10 min at 4 ℃.
The supernatant layer was collected and then 50 μL of supernatant was injected for the […]
9.4 Chromatography and mass spectrometry conditions […]

The target of a further data set is human A2A AR (Homo sapiens, UniProt P29274). Description: cAMP functional assay in CHO-K1/ADORA2A/Gα15 cells (NECA-stimulated, HTRF).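 For all read-outs here: inhibition of NECA-driven intracellular cAMP build-up in the A2A-expressing cells, quantified with cAMP-d2 plus Eu3+-labelled anti-cAMP detection reagent.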 The conditions noted are these: for IC50: CHO cells expressing hA2A AR, read-out: cAMP IC50 hA2A AR; for IC50 / inhibition at 0.01 µM / inhibition at 0.1 µM / inhibition at 1 µM: mean ± SEM; for inhibition at 0.01 µM / inhibition at 0.1 µM / inhibition at 1 µM: CHO-K1, relative to ZM241385 at 1 μM; for inhibition at 0.01 µM: compound at 10 nM, read-out: hA2A AR (%) inhibition of cAMP, 10 nM; for inhibition at 0.1 µM: compound at 100 nM, read-out: hA2A AR (%) inhibition of cAMP, 100 nM; for inhibition at 1 µM: compound at 1000 nM, read-out: hA2A AR (%) inhibition of cAMP, 1000 nM. It counts as cell-based.

The test system of the next data set is PBMCs. Description: T-cell activation assay (IL-2 production in PBMCs, NECA-suppressed, anti-CD3/anti-CD28). Type of data set: cell-based. The conditions noted are these: 10, 100, 1000 nM antagonist with 1000 nM NECA; ELISA after 48 h; Figure 3. On the procedure:
The effector functions of T cells that express A2 ARs can be evaluated by measuring specific cytokine production[4]^,[9]^,[38]. In this study, the efficiencies of selected antagonists on IL-2 production (T cell activation) were examined. […] However, when the antagonist was added, the concentration of IL-2 was restored, indicating the inhibition effect of NECA was blocked.
Figure 3. The efficiencies of selected compounds for IL-2 production. The efficiencies of selected antagonists on T-cell activation at 10 nM, 100 nM, and 1000 nM were tested in the presence or absence of 1000 nM NECA. The DMSO control was tested in the absence of both antagonists and NECA. The NECA control was tested without antagonists in the presence of 1000 nM NECA.
Cryopreserved PBMCs (Allcells) were thawed and recovered in RPMI1640 medium overnight before being used. And compounds to be tested were diluted with DMSO to 100 folds of working concentrations. Then PBMCs were added to 96-well U bottom plate (2.5 × 10^5 cells per well). To the cells, 2 μl of NECA and 2 μl of each diluted compound (a final concentration of DMSO is 2%) were added. Then, cells were incubated at 37 °C under 5% CO2 for 1 h. Add 100 μl anti-CD3 (2 μg/ml) and anti-CD28 antibody (2 μg/ml) to each well and cells were cultured for 48 h. After 48 h, supernatants were collected and IL-2 concentration was detected by ELISA.

Where [2] appears, read: iv, i.v. 10 mg/kg, read-out: Cmax i.v.
[3] abbreviates: oral 30 mg/kg, read-out: Cmax Oral.
Setting [4] is: iv, i.v. 10 mg/kg, mean n = 3, read-out: t1/2 i.v. (converted).
The mark [5] stands for this setting: iv, i.v. 10 mg/kg, read-out: AUC0→∞ i.v.
[6] abbreviates: oral 30 mg/kg, mean n = 3, read-out: t1/2 Oral (converted).
The mark [7] stands for this setting: oral 30 mg/kg, read-out: AUC0→t Oral.
Setting [8] is: oral 30 mg/kg, read-out: AUC0→∞ Oral.
[9] abbreviates: po, 30 mg/kg, oral 30 mg/kg, read-out: tmax Oral.

Chain of human A2A AR (P29274 whole entry): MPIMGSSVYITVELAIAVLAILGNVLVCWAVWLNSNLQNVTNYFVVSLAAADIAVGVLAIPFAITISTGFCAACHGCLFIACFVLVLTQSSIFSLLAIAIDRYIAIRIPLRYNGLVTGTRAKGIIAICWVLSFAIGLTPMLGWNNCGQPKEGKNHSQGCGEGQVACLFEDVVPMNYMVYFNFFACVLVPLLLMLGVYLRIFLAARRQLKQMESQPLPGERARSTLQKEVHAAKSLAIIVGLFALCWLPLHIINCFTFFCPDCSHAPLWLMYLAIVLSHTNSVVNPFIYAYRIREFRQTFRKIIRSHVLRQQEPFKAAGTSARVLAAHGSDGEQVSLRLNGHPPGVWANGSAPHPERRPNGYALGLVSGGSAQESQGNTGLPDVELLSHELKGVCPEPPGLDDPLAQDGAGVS
Experimental for human A2A AR: In the cAMP assay, CHO-K1/ADORA2A/Gα15 cells expressing human A2A AR and CHO-K1/ADORA2b/Gα15 cells expressing human A2B AR were activated by 5′-(N-ethylcarboxamido)adenosine (NECA) and triggered the accumulation of intracellular cAMP concentration.
CHO-K1/ADORA2A/Gα15 cells expressing human A2A AR and CHO-K1/ADORA2b/Gα15 cells expressing human A2B AR were both constructed by Genscript Biotech Corporation. […] The test stock solutions were diluted with different gradients for use. The procedure was exemplified by the cAMP functional assay on the A2A receptor: 10,000 cells/well of CHO-K1/ADORA2A/Gα15 were seeded in a 384-well plate in 20 μl of assay buffer. […] Then, 10 μl of detection reagent (cAMP-d2 and anti-cAMP-Eu3+) was added into each well of the plate and incubated at room temperature for 1 h.

As for `Cc1c(C#N)cccc1-c1cc(-c2cn(Cc3cccc(C#N)n3)nn2)nc(N)n1` [Compound 7f, 6-((4-(2-Amino-6-(3-cyano-2-methylphenyl)pyrimidin-4-yl)-1H-1,2,3-triazol-1-yl)methyl)picolinonitrile], the melting point fell in the range of 147 to 148 °C. For the same molecule, the peak concentration (Cmax) in data set [1] (setting [2]) is 5010 ng/mL. Further, the Cmax in data set [1] (setting [3]) came out at 7160 ng/mL. Also, the time to peak (Tmax) in data set [1] (iv, 10 mg/kg, i.v. 10 mg/kg, read-out: tmax i.v.) was found to be 0.25 h. Further, the half-life in data set [1] (setting [4]) was 2.67 h. For the same molecule, the AUC(0-inf) in data set [1] (setting [5]) was found to be 17300 ng·h/mL. Also, the bioavailability in data set [1] turned out to be 87.7%. Further, the half-life in data set [1] (setting [6]) was 4.12 h. Also, in data set [1] (setting [7]), the AUC(0-t) is 45500 ng·h/mL. The AUC(0-inf) in data set [1] (setting [8]) is 46200 ng·h/mL. The Tmax in data set [1] (setting [9]) is 2 h. In data set [1] (i.v. 10 mg/kg), the AUC0→t/Dose i.v. is on record as 1728.68 (µg/L*h)/(mg/kg), the “AUC0→∞/Dose i.v.” value is given as 1731.60 (µg/L*h)/(mg/kg) and the Cmax/Dose i.v. is 501.03 (µg/L)/(mg/kg). In data set [1] (oral 30 mg/kg), the “AUC0→t/Dose Oral” value is on record as 1516.35 (µg/L*h)/(mg/kg), the “AUC0→∞/Dose Oral” value is recorded as 1541.08 (µg/L*h)/(mg/kg) and the “Cmax/Dose Oral” value was 238.76 (µg/L)/(mg/kg). Moreover, on human A2A AR, the IC50 turned out to be 24.04 ± 0.06 nM, the inhibition at 0.01 µM was determined as 54.9 ± 1.19%, the inhibition at 0.1 µM turned out to be 84.2 ± 2.94% and the inhibition at 1 µM came out at 92.41 ± 0.43%. Moreover, the “fold less active than compound 7i (cAMP IC50, A2A receptor)” value on human A2A AR (ratio of cAMP IC50 values vs 7i) stood at 4 fold. The “IL-2 production (T cell activation)” value with PBMCs is recorded as “sufficient activities to stimulate IL-2 production”.
Regarding `Cc1c(C#N)cccc1-c1cc(-c2cn(Cc3cccc(C(N)=O)n3)nn2)nc(N)n1` [Compound 7i, 6-((4-(2-Amino-6-(3-cyano-2-methylphenyl)pyrimidin-4-yl)-1H-1,2,3-triazol-1-yl)methyl)picolinamide], the melting point is 151 to 152 °C. Moreover, the highest concentration (Cmax) in data set [1] (setting [2]) amounted to 7270 ng/mL. Moreover, in data set [1] (setting [3]), the highest concentration (Cmax) was 1010 ng/mL. For the same molecule, the half-life in data set [1] (setting [4]) was 2.19 h. The AUC(0-t) in data set [1] (iv, i.v. 10 mg/kg, read-out: AUC0→t i.v.) amounted to 4480 ng·h/mL. Also, in data set [1] (setting [5]), the AUC(0-inf) amounted to 4480 ng·h/mL. Also, the bioavailability in data set [1] worked out at 58.8%. Also, the half-life in data set [1] (setting [6]) is 4.82 h. Also, the AUC(0-t) in data set [1] (setting [7]) worked out at 7900 ng·h/mL. For the same molecule, in data set [1] (setting [8]), the AUC(0-inf) was determined as 8150 ng·h/mL. Moreover, the Tmax in data set [1] (setting [9]) worked out at 1 h. Moreover, in data set [1] (i.v. 10 mg/kg), the AUC0→t/Dose i.v. is 448.46 (µg/L*h)/(mg/kg), the “AUC0→∞/Dose i.v.” value is on record as 448.48 (µg/L*h)/(mg/kg) and the Cmax/Dose i.v. is on record as 726.66 (µg/L)/(mg/kg). For the same molecule, in data set [1] (oral 30 mg/kg), the “AUC0→t/Dose Oral” value is given as 263.50 (µg/L*h)/(mg/kg), the “AUC0→∞/Dose Oral” value is recorded as 271.51 (µg/L*h)/(mg/kg) and the “Cmax/Dose Oral” value is 33.58 (µg/L)/(mg/kg). For the same molecule, at human A2A AR, the IC50 was determined as 6.007 ± 0.05 nM, the inhibition at 0.01 µM is 32.7 ± 1.8%, the inhibition at 0.1 µM worked out at 95.9 ± 3.36% and the inhibition at 1 µM worked out at 103 ± 2.82%. In addition, the “IL-2 production (T cell activation)” value in the data set on PBMCs is reported as “sufficient activities to stimulate IL-2 production; also recorded: better activity than AB928”.
